Source: ChEMBL document CHEMBL1201862, “PubChem BioAssay data set” (2004)
Where “and” joins values, the source holds several entries; their conditions need not be identical. Equal entries are not always repeated.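 Five compound concentrations were applied to cells in 96-well plates for 48 hours; endpoints were derived by simple linear interpolation of the resulting dose-response curve. Here, GI50 denotes the concentration required for 50% inhibition of growth.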 Calls of active or inactive are those of the source. Cut-off read from the data, not from the text of the source: active = GI50 up to about 1.1 µM and inactive = higher.

What was measured:
Assay in all cases: NCI anticancer screen, dose series, 48 h
M14 = test system: M14
U-251 = test system: U-251
NCI-H23 = test system: NCI-H23
SF-539 = test system: SF-539
NCI-H460 = test system: NCI-H460
MCF7 = test system: MCF7
A498 = test system: A498
HCC 2998 = test system: HCC 2998
NCI-H522 = test system: NCI-H522
OVCAR-3 = test system: OVCAR-3
SK-MEL-5 = test system: SK-MEL-5
DU-145 = test system: DU-145
HCT-15 = test system: HCT-15
MDA-MB-435 = test system: MDA-MB-435
SN12C = test system: SN12C
SF-295 = test system: SF-295
A549 = test system: A549
SNB-19 = test system: SNB-19
NCI-H226 = test system: NCI-H226
UACC-62 = test system: UACC-62

Row | Compound | GI50 (M14) | GI50 (U-251) | GI50 (NCI-H23) | GI50 (SF-539) | GI50 (NCI-H460) | GI50 (MCF7) | GI50 (A498) | GI50 (HCC 2998) | GI50 (NCI-H522) | GI50 (OVCAR-3) | GI50 (SK-MEL-5) | GI50 (DU-145) | GI50 (HCT-15) | GI50 (MDA-MB-435) | GI50 (SN12C) | GI50 (SF-295) | GI50 (A549) | GI50 (SNB-19) | GI50 (NCI-H226) | GI50 (UACC-62)
1 | O=C(CSCC(=O)N/N=C/c1ccc2c(c1)OCO2)N/N=C/c1ccc2c(c1)OCO2 | 58.9 µM (inactive) | > 100000 nM (inactive) | 27 µM (inactive) | > 100000 nM (inactive) | > 100000 nM (inactive) | 63000 nM (inactive) | > 100000 nM (inactive) | > 100000 nM (inactive) | 64100 nM (inactive) | > 100 µM (inactive) | 24200 nM (inactive) | > 100 µM (inactive) | > 100000 nM | 38.3 µM (inactive) | > 100000 nM (inactive) | 44.6 µM (inactive) | 91400 nM (inactive) | > 100000 nM (inactive) | 40.2 µM (inactive) | 52.6 µM (inactive)
2 | COc1cccc2c1C(=O)c1c(O)c3c(c(O)c1C2=O)C[C@@](O)(/C(C)=N\O)C[C@@H]3OC1CC(N)C(O)C(C)O1 (some centres undefined) | 2.28 µM (inactive) | 766 nM (active) | 1.26 µM (inactive) | 931 nM (active) | 268 nM (active) | 289 nM (active) | 834 nM (active) | 834 nM (active) | 315 nM (active) | 1.45 µM (inactive) | 643 nM (active) | 1.72 µM (inactive) | 28700 nM | 8.45 µM (inactive) | 741 nM (active) | 1.38 µM (inactive) | 968 nM (active) | 780 nM (active) | 1.81 µM (inactive) | 1.12 µM (inactive)
3 | COc1cccc(-c2cc(O)c3c(C)ccnc3n2)c1 | 0.0239 µM (active) | 36 nM (active) | 0.0625 µM (active) | 27.2 nM (active) | 39.5 nM (active) | 74.1 nM (active) | 34.4 nM (active) | 35.2 nM (active) | 27.5 nM (active) | 0.0186 µM (active) | 24.1 nM (active) | 0.0471 µM (active) | 48.6 nM | < 0.01 µM (active) | 65.5 nM (active) | 0.029 µM (active) | 51.8 nM (active) | 31 nM (active) | 0.0272 µM (active) | 0.0267 µM (active)
4 | COc1ccc2[nH]cc([C@@H]3C4CCC(C4)[C@H]3NCc3cccc(CN[C@H]4C5CCC(C5)[C@@H]4c4c[nH]c5ccc(OC)cc45)c3)c2c1 | 640 nM (active) and 600 nM (active) |  | 1.75 µM (inactive) and 1.53 µM (inactive) | 1 µM (active) and 1.73 µM (inactive) | 340 nM (active) and 237 nM (active) | 1.5 µM (inactive) and 1.01 µM (active) | 1.82 µM (inactive) and 1.78 µM (inactive) | 339 nM (active) and 256 nM (active) | 1.5 µM (inactive) and 1.17 µM (inactive) | 1.65 µM (inactive) and 1.54 µM (inactive) | 1.62 µM (inactive) and 1.55 µM (inactive) | 1.67 µM (inactive) and 1.68 µM (inactive) | 791 nM and 998 nM | 520 nM (active) and 733 nM (active) | 1.1 µM (active) and 1.51 µM (inactive) | 1.45 µM (inactive) and 1.66 µM (inactive) | 1.46 µM (inactive) and 1.61 µM (inactive) | 1.53 µM (inactive) and 1.65 µM (inactive) | 2.01 µM (inactive) and 1.91 µM (inactive) | 1.8 µM (inactive) and 1.75 µM (inactive)
